Consider 18 molecules from article PMC6419571, “Discovery and lead optimisation of a potent, selective and orally bioavailable RARβ agonist for the potential treatment of nerve injury” (Bioorganic & Medicinal Chemistry Letters, 2019).

As usually defined, the pEC50 is the negative decadic logarithm of the EC50, by convention in mol/L.

Type in all cases: cell-based
One assay has as its target T1, RARα (Mus musculus, UniProt P11416).
T1 construct: expressed in transfected cells; host or cells: COS-7
T1 sequence (P11416 183-417 limits assumed): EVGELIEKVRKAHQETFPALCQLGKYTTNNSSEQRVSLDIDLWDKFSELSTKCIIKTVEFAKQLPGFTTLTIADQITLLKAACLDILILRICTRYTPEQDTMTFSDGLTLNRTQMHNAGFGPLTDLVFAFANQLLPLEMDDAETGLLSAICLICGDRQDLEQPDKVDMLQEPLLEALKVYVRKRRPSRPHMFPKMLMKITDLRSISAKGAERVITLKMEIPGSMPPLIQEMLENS
The assay can be described thus: RAR alpha transactivation assay (gal4-RAR LBD fusion, luciferase reporter, COS-7 cells). The conditions noted are these: mouse RAR ligand binding domain; usually three experiments; read-out: α EC50. Here is the method: (§1) Compounds were tested in transactivation assays at the RAR α, β and γ receptors.
(§2) Transactivation assays for RAR alpha, beta and gamma receptors:
(§3) Transcriptional transactivation assays have been performed with gal4 fusion receptor constructs, created using each of the mouse RAR ligand-binding domains, co-transfected with the pFR-luc (Stratagene) reporter construct in COS-7 cells.
(§4) Briefly, on day one, 96 well plates were seeded with 8000 cells per well then left to recover overnight. On day two, the cells were co-transfected with 100ng of reporter plasmid and 10ng of the appropriate receptor plasmid per well using lipofectamine (Invitrogen). On day three, the lipofectamine containing media was replaced by a DMEM without phenol red, followed by the addition of novel compounds dissolved in 1µl of DMSO to each well’s 100µl total volume. Finally, on day four, the cells were lysed and their luciferase substrate was provided by the BrightGlo reagent (Promega), the plates were then read on the MicroBeta TriLux (Perkin Elmer).
(§5) Data for test compounds are quoted as EC50 values. Where replicate data has been generated the data are quoted as the mean EC50 from the separate experiments.
For orientation: In a reporter assay the amount or activity of a reporter protein is the signal.

Another assay concerns the target T2, RARβ (Mus musculus, UniProt P22605).
T2 construct: expressed in transfected cells; host or cells: COS-7
T2 sequence (P22605 210-444 limits assumed): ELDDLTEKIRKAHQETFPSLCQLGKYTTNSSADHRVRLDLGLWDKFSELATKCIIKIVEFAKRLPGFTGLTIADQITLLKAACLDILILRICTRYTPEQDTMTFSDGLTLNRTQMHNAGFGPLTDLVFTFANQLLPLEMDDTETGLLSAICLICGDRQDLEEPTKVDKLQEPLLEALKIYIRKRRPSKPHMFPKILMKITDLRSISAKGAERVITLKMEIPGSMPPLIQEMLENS
As to the kind of experiment: RAR beta transactivation assay (gal4-RAR LBD fusion, luciferase reporter, COS-7 cells). The settings on record: for Fold selectivity for β over α: EC50 ratio of α to β, Tables 1 and 4; for Fold selectivity for β over α / Fold selectivity for β over γ: mouse; for Fold selectivity for β over γ: EC50 ratio of γ to β; for pEC50: mouse RAR ligand binding domain, usually three experiments, read-out: β EC50. Here is the method:
as §1, §2, §3, §4, §5

A further assay concerns the target T3, RARγ (Mus musculus, UniProt P18911).
T3 construct: expressed in transfected cells; host or cells: COS-7
T3 sequence (P18911 185-419 limits assumed): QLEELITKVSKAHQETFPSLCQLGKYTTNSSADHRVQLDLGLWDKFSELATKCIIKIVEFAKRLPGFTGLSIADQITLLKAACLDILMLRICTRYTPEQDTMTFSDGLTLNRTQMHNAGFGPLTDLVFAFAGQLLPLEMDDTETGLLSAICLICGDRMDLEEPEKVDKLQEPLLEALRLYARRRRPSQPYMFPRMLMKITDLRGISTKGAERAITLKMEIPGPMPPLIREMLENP
As to the kind of experiment: RAR gamma transactivation assay (gal4-RAR LBD fusion, luciferase reporter, COS-7 cells). The settings on record: mouse RAR ligand binding domain; Tables 1 and 4; read-out: γ EC50. The method, then: as §1, §2, §3, §4, §5

pEC50: −log10 of the molar value.

Turning to `CCOc1c(Cl)cc(-c2cnc(-c3ccc(C(=O)O)cc3)o2)cc1Cl` [Compound 4], the pEC50 at RARα was 7.22. Besides, at RARβ, the “Fold selectivity for β over α” value was found to be 2.1, the “Fold selectivity for β over γ” value was 1.6 and the pEC50 is 7.55. In addition, on RARβ (relative to amide 1), the “fold more potent than 1 as an RARβ agonist” value is recorded as over 40 fold.
`CCOc1c(Cl)cc(-c2c[nH]c(-c3ccc(C(=O)O)cc3)n2)cc1Cl` [Compound 3]: on RARα, the pEC50 is 6.23. In addition, at RARβ, the “Fold selectivity for β over α” value turned out to be 1.4 and the pEC50 was 6.37.
For `CCOc1c(Cl)cc(-c2nc(-c3ccc(C(=O)O)cc3)no2)cc1Cl` [Compound 5], the pEC50 at RARα is 7.74. In addition, at RARβ, the “Fold selectivity for β over α” value came out at 12, the “Fold selectivity for β over γ” value was 19 and the pEC50 was 8.82. Also, at RARγ, the pEC50 was 7.55.
Regarding `CCOc1c(Cl)cc(-c2nnc(-c3ccc(C(=O)O)cc3)o2)cc1Cl` [Compound 7], the pEC50 on RARα was 7.24. At RARβ, the “Fold selectivity for β over α” value is reported as 0.92, the “Fold selectivity for β over γ” value is 2.4 and the pEC50 was 7.20.
On to `Cc1ccc(C)c2sc(-c3nc(-c4ccc(C(=O)O)cc4)no3)cc12` [Compound 12], for which the pEC50 at RARα is 7.52; on RARβ, 8.47. Also, at RARβ, the “Fold selectivity for β over γ” value turned out to be 2.
In the case of `CC1(C)CCC(C)(C)c2cc(-c3nc(-c4ccc(C(=O)O)cc4)no3)ccc21` [Compound 8], on RARα, the pEC50 was 7.74. Also, on RARβ, the “Fold selectivity for β over γ” value came out at 0.0041 and the pEC50 was 5.38. For the same molecule, the “fold loss in potency as a RARβ agonist relative to 5” value on RARβ (relative to 5) was over 2700 fold.
On to `CC(C)(C)c1cc(-c2nc(-c3ccc(C(=O)O)cc3)no2)cc(C(C)(C)C)c1` [Compound 9], for which the pEC50 at RARα was 8.40. In addition, on RARβ, the “Fold selectivity for β over γ” value is 2.1 and the pEC50 is 8.85.
Turning to `CCOc1c(Cl)cc(C(=O)Nc2ccc(C(=O)O)cc2)cc1Cl` [Compound 1, 4-[(3,5-dichloro-4-ethoxybenzoyl)amino]benzoic acid], the pEC50 on RARα was 7.34. Besides, at RARβ, the “Fold selectivity for β over α” value amounted to 0.037, the “Fold selectivity for β over γ” value came to 24 and the pEC50 is 5.91.
For `Cc1ccc(C)c2oc(-c3nc(-c4ccc(C(=O)O)cc4)no3)nc12` [Compound 13], the pEC50 at RARα was 6.94; on RARβ it was 7.96. For the same molecule, the “Fold selectivity for β over γ” value at RARβ stood at 7.5.
For `CCOc1c(Cl)cc(-c2noc(-c3ccc(C(=O)O)cc3)n2)cc1Cl` [Compound 6], the pEC50 on RARα is 7.51. Further, on RARβ, the “Fold selectivity for β over α” value came to 0.28, the “Fold selectivity for β over γ” value amounted to 0.05 and the pEC50 was 6.96.
With `COc1ccc(-c2ccc3cc(C(=O)O)ccc3c2)cc1C1(C)CCCCC1` [CD 2019, reference compound], the figures for the pEC50 on RARα, at RARβ and on RARγ were 8.04, 9.08 and 8.80, respectively.
For the molecule `Cc1cc(-c2noc(-c3cc4c(C)ccc(C)c4o3)n2)ccc1C(=O)O` [Compound 15], the values for the pEC50 on RARα and on RARβ were 7.05 and 7.85, respectively. For the same molecule, on RARβ, the “Fold selectivity for β over γ” value worked out at 1.8.
Consider `Cc1ccc(C)c2oc(-c3nc(-c4ccc(C(=O)O)c(F)c4)no3)cc12` [Compound 14], for which the pEC50 was 7.80 at RARα and 8.66 on RARβ. Moreover, the “Fold selectivity for β over γ” value at RARβ is on record as 3.8.
In the case of `CCOc1c(Cl)cc(-c2csc(-c3ccc(C(=O)O)cc3)n2)cc1Cl` [Compound 2], at RARα, the pEC50 was 6.62. Further, on RARβ, the “Fold selectivity for β over α” value is recorded as 2, the “Fold selectivity for β over γ” value is recorded as 1.3 and the pEC50 is 6.92.
Regarding `Cc1cc(C(=O)O)ccc1-c1noc(-c2cc3c(C)ccc(C)c3o2)n1` [Compound 17], the negative logarithm of the EC50 (pEC50) at RARα was 6.22; on RARβ, 7.33. Further, the “Fold selectivity for β over γ” value at RARβ stood at 0.3.
On to `CCCCOCCOc1nc(-c2ccc(C(=O)O)c(F)c2)sc1C` [AC 261066, reference compound], for which the pEC50 at RARα is 7.15. In addition, at RARβ, the “Fold selectivity for β over α” value was determined as 5.8, the “Fold selectivity for β over γ” value was 2.8 and the pEC50 is 7.92. For the same molecule, the pEC50 on RARγ was 7.48.
Regarding `Cc1ccc(C)c2oc(-c3nc(-c4ccc(C(=O)O)cc4F)no3)cc12` [Compound 16], the pEC50 at RARα is 7.21; on RARβ, 7.96. Also, the “Fold selectivity for β over γ” value at RARβ was 0.33.
`O=C(O)c1ccc(-c2noc(-c3cc4c(C(F)(F)F)ccc(F)c4o3)n2)cc1` [Compound 11]: the pEC50 at RARα is 7.72. At RARβ, the “Fold selectivity for β over γ” value turned out to be 2 and the pEC50 is 8.60.
